The results in this text go back to patent publication US9388142B2, “Quinazolinone derivatives as PARP inhibitors” (MERCK PATENT GMBH, priority 2012, dated 2016).

Each structure is given as a SMILES string. Counter-ions that a name gives are not always drawn. Like-named read-outs stand apart in the source and are kept apart here.

Test [1] has as its target T1, GST-tagged Tnks-1 (1023-1327 aa) (Homo sapiens, UniProt O95271).
T1 construct: GST-tagged Tnks-1 (1023-1327 aa, prepared in-house); made in house
The experiment in a line: TNKS1 activity ELISA (autoparsylation assay). The class given is biochemical. The protocol:
Description of the TNKS1 and TNKS2 ELISA Assay
Then the activity assay with biotinylated NAD is performed in the absence/presence of the compounds. During the enzymatic reaction GST tagged TNKS transfers biotinylated ADP-ribose to itself from biotinylated NAD as co-substrate. For the detection streptavidin-HRP conjugate is added that binds to the biotinylated TNKS and is thereby captured to the plates. The amount of biotinylated resp. autoparsylated TNKS is detected with a luminescence substrate for HRP. The level of the luminescence signal correlates directly with the amount of autoparsylated TNKS and therefore with activity of TNKS.
The activity ELISA is performed in 384 well Glutathione coated microtiter plates (Express capture Glutathione coated plate, Biocat, Heidelberg, Germany). The plates are pre-equilibrated with PBS. […] The plates are washed 3 times with PBS-Tween-20. The wells are blocked by incubation at room temperature for 20 minutes with 50 μl blocking buffer (PBS, 0.05% Tween-20, 0.5% BSA). Afterwards the plates are washed 3 times with PBS-Tween-20. […] The reaction is stopped by 3 times washing with PBS-Tween-20. For the detection 50 μl of 20 ng/μl Streptavidin, HRP conjugate (MoBiTec, Gottingen, Germany) in PBS/0.05% Tween-20/0.01% BSA are added and the plates are incubated for 30 minutes at room temperature. After three times washing with PBS-Tween-20 50 μl of SuperSignal ELISA Femto Maximum sensitivity substrate solution (ThermoFisherScientific (Pierce), Bonn, Germany) are added. Following a 1 minute incubation at room temperature luminescence signals are measured with an Envision multimode reader (Perkin Elmer LAS Germany GmbH) at 700 nm. The full value used is the inhibitor-free reaction. […] The inhibitory values (IC50) are determined using either the program Symyx Assay Explorer® or Condosseo® from GeneData.

A further test deals with T2, His-tagged Parp-1 (Homo sapiens, UniProt P09874).
T2 construct: purchased Enzo Life Sciences GmbH, Lörrach, Germany
T2 sequence (P09874 whole entry): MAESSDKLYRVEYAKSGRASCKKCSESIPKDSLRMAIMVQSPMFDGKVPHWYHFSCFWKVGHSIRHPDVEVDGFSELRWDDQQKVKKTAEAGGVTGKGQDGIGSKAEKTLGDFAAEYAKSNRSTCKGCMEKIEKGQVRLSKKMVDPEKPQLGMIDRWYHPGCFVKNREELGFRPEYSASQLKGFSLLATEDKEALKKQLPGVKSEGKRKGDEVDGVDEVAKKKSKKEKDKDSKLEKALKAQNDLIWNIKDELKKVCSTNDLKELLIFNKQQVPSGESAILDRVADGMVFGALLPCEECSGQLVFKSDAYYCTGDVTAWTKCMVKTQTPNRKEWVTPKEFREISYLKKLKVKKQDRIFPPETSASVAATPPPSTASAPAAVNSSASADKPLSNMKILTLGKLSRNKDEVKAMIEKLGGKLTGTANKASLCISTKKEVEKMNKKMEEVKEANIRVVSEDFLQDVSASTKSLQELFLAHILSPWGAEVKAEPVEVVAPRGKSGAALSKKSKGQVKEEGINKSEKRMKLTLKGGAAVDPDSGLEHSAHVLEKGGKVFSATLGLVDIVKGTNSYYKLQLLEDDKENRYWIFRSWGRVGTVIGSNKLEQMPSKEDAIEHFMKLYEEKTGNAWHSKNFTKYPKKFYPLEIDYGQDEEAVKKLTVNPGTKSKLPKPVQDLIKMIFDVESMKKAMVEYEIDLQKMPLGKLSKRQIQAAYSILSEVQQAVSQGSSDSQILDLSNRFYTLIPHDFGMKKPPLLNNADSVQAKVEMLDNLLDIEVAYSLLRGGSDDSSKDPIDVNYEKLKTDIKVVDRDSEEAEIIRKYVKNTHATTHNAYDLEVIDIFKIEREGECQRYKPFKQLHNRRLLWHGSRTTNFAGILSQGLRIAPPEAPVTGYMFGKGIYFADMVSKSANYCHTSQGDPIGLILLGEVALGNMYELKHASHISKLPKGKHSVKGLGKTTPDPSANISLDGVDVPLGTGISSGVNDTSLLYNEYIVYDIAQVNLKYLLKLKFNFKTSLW
Briefly: PARP-1 autoparsylation assay (HTRF). The class given is biochemical. The source says:
Description of the PARP1 Assay
Biochemical Activity Testing of PARP-1: Autoparsylation Assay
The autoparsylation assay is run in two steps: the enzymatic reaction in which His-tagged Parp-1 transfers biotinylated ADP-ribose/ADP-ribose to itself from biotinylated NAD/NAD as co-substrate and the detection reaction where a time resolved FRET between cryptate labelled anti-His antibody bound to the His tag of the enzyme and Xlent® labelled-streptavidin bound the biotin-parsylation residue is analysed. The autoparsylation activity is detectable directly via the increase in HTRF signal.
The autoparsylation assay is performed as 384-well HTRF® (Cisbio, Codolet, France) assay format in Greiner low volume nb 384-well microtiter plates. 35 nM His-tagged Parp-1 (human, recombinant, Enzo Life Sciences GmbH, Lörrach, Germany) and a mixture of 125 nM bio-NAD (Biolog, Life science Inst., Bremen, Germany) and 800 nM NAD as co-substrate are incubated in a total volume of 6 μl (100 mM Tris/HCl, 4 mM Mg-chloride, 0.01% IGEPAL® CA630, 1 mM DTT, 0.5% DMSO, pH 8, 13 ng/μl activated DNA (BPS Bioscience, San Diego, US)) in the absence or presence of the test compound (10 dilution concentrations) for 150 min at 23° C. The reaction is stopped by the addition of 4 μl of the Stop/detection solution (70 nM SA-Xlent® (Cisbio, Codolet, France), 2.5 nM Anti-His-K® (Eu-labelled anti-His, Cisbio, Codolet, France) in 50 mM HEPES, 400 mM KF, 0.1% BSA, 20 mM EDTA, pH 7.0). After 1 h incubation at room temperature the HTRF iss measured with an Envision multimode reader (Perkin Elmer LAS Germany GmbH) at excitation wavelength 340 nm (laser mode) and emission wavelengths 615 nm and 665 nm. The ratio of the emission signals is determined. The full value used is the inhibitor-free reaction. The pharmacological zero value used is Olaparib (LClabs, Woburn, US) in a final concentration of 1 The inhibitory values (IC50) are determined using either the program Symyx Assay Explorer® or Condosseo® from GeneData.

For test [2], the target named is T3, GST-tagged Tankyrase-1 (1023-1327 aa) (Homo sapiens, UniProt O95271).
T3 construct: GST-tagged Tankyrase-1 (1023-1327 aa)
T3 sequence (O95271 1023-1327): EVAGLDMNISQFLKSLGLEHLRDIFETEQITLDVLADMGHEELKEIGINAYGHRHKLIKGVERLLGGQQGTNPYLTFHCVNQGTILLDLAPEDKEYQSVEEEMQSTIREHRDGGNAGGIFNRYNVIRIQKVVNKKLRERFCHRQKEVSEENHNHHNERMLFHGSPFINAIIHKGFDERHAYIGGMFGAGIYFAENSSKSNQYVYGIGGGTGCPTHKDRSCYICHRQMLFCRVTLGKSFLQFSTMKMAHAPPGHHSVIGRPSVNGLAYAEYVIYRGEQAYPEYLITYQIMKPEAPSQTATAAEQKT
Briefly: biochemical. From the text:
aq (aqueous), h (hour), g (gram), L (liter), mg (milligram), MHz (Megahertz), min. (minute), mm (millimeter), mmol (millimole), mM (millimolar), m.p. (melting point), eq (equivalent), mL (milliliter), L (microliter), ACN (acetonitrile), AcOH (acetic acid), CDCl3 (deuterated chloroform), CD3OD (deuterated methanol), CH3CN (acetonitrile), c-hex (cyclohexane), DCC (dicyclohexyl carbodiimide), DCM (dichloromethane), DIC (diisopropyl carbodiimide), DIEA (diisopropylethyl-amine), DMF (dimethylformamide), DMSO (dimethylsulfoxide), DMSO-d6 (deuterated dimethylsulfoxide), EDC (1-(3-dimethyl-amino-propyl)-3-ethylcarbodiimide), ESI (Electro-spray ionization), EtOAc (ethyl acetate), Et2O (diethyl ether), EtOH (ethanol), HATU (dimethylamino-([1,2,3]triazolo[4,5-b]pyridin-3-yloxy)-methylene]-dimethylammonium hexafluorophosphate), HPLC (High Performance Liquid Chromatography), i-PrOH (2-propanol), K2CO3 (potassium carbonate), LC (Liquid Chromatography), MeOH (methanol), MgSO4 (magnesium sulfate), MS (mass spectrometry), MTBE (Methyl tert-butyl ether), NaHCO3 (sodium bicarbonate), NaBH4 (sodium borohydride), NMM (N-methyl morpholine), NMR (Nuclear Magnetic Resonance), PyBOP (benzotriazole-1-yl-oxy-trispyrrolidino-phosphonium hexafluorophosphate), RT (room temperature), Rt (retention time), SPE (solid phase extraction), TBTU (2-(1-H-benzotriazole-1-yl)-1,1,3,3-tetramethyluromium tetrafluoro borate), TEA (triethylamine), TFA (trifluoroacetic acid), THF (tetrahydrofuran), TLC (Thin Layer Chromatography), UV (Ultraviolet). Description of the In Vitro Assays Abbreviations: GST=Glutathione-S-transferase FRET=Fluorescence resonance energy transfer HTRF®=(homogenous time resolved fluorescence) HEPES=4-(2-hydroxyethyl)-1-piperazine ethanesulfonic acid buffer DTT=Dithiothreitol BSA=bovine serum albumin CHAPS=detergent; CHAPS=3[(3-cholamidopropyl)dimethylammonio]-1-propanesulfonate Streptavidin-XLent® is a high grade streptavidin-XL665 conjugate for which the coupling conditions have been optimized to yield a conjugate with enhanced performances for some assays, particularly those requiring high sensitivity.
The autoparsylation assay is run in two steps: the enzymatic reaction in which GST-tagged Tankyrase-1, resp Tankyrase-2 transferred biotinylated ADP-ribose to itself from biotinylated NAD as co-substrate and the detection reaction where a time resolved FRET between cryptate labelled anti-GST bound to the GST tag of the enzyme and Xlent® labelled-streptavidin bound the biotin-parsylation residue is analysed. The autoparsylation activity was detectable directly via the increase in HTRF signal.
The autoparsylation assay is performed as 384-well HTRF® (Cisbio, Codolet, France) assay format in Greiner low volume nb 384-well microtiter plates and is used for high throughput screen. […] The reaction is stopped by the addition of 1 μl 50 mM EDTA solution. […] The ratio of the emission signals is determined. The full value used is the inhibitor-free reaction. […] The inhibitory values (IC50) are determined using either the program Symyx Assay Explorer® or Condosseo® from GeneData.

Where [3] appears, read: read-out: IC50 tankyrase 1 (enzyme assay).

T1 sequence (O95271 1023-1327): as above

Turning to `CN1CCN(c2ccc(-c3nc4ccc(F)cc4c(=O)[nH]3)cc2)CC1` [Compound A10, 6-fluoro-2-[4-(4-methyl-piperazin-1-yl)-phenyl]-3H-quinazolin-4-one], the IC50 is < 300 nM in test [1] (read-out: IC50 TNKS1 ELISA), 300 to 3000 nM at His-tagged Parp-1 and < 300 nM in test [2] (setting [3]).

Regarding `COCCOC(C)(C)c1ccc(-c2nc3ccc(F)cc3c(=O)[nH]2)cc1` [Compound A8, 6-fluoro-2-{4-[1-(2-methoxy-ethoxy)-1-methyl-ethyl]-phenyl}-3H-quinazolin-4-one], the IC50 was < 300 nM in test [1] (read-out: IC50 TNKS1 ELISA), 3000 to 50000 nM against His-tagged Parp-1 and 300 to 3000 nM in test [2] (setting [3]).

As for `CC(C)(C)c1ccc(-c2nc3ccc(F)cc3c(=O)[nH]2)cc1` [Compound A9, 2-(4-tert-butyl-phenyl)-6-fluoro-3H-quinazolin-4-one], the figures for the IC50 (in test [1] (read-out: IC50 TNKS1 ELISA); against His-tagged Parp-1; in test [2] (setting [3])) were < 300 nM, 3000 to 50000 nM and < 300 nM, respectively.

Take `Cc1cc(F)cc2c(=O)[nH]c(-c3ccc(C(C)(C)OCCO)cc3)nc12` [Compound A21, 6-fluoro-2-{4-[1-(2-hydroxy-ethoxy)-1-methyl-ethyl]-phenyl}-8-methyl-3H-quinazolin-4-one]: the values for the IC50 (in test [1] (read-out: IC50 TNKS1 ELISA); against His-tagged Parp-1; in test [2] (setting [3])) were < 300 nM, 300 to 3000 nM and 300 to 3000 nM, respectively.

For the compound `Cc1cc(F)cc2c(=O)[nH]c(-c3ccc(N4CCN(C)CC4)cc3)nc12` [Compound A28, 6-fluoro-8-methyl-2-[4-(4-methyl-piperazin-1-yl)-phenyl]-3H-quinazolin-4-one], the values for the IC50 (in test [1] (read-out: IC50 TNKS1 ELISA); against His-tagged Parp-1; in test [2] (setting [3])) were < 300 nM, < 300 nM and 300 to 3000 nM, respectively.

Regarding `CC(C)(O)c1ccc(-c2nc3cccc(F)c3c(=O)[nH]2)cc1` [Compound A4, 5-fluoro-2-[4-(1-hydroxy-1-methyl-ethyl)-phenyl]-3H-quinazolin-4-one], the results for the half-maximal inhibitory concentration (IC50) (in test [1] (read-out: IC50 TNKS1 ELISA); against His-tagged Parp-1; in test [2] (setting [3])) were < 300 nM, 300 to 3000 nM and < 300 nM, respectively.

For the compound `CC(C)(O)c1ccc(-c2nc3ccc(F)c(F)c3c(=O)[nH]2)cc1` [Compound A12, 5,6-difluoro-2-[4-(1-hydroxy-1-methyl-ethyl)phenyl]-3H-quinazolin-4-one], the values for the half-maximal inhibitory concentration (IC50) (in test [1] (read-out: IC50 TNKS1 ELISA); at His-tagged Parp-1; in test [2] (setting [3])) were < 300 nM, 300 to 3000 nM and < 300 nM, respectively.

On to `CC(C)(O)c1ccc(-c2nc3c(F)cc(F)cc3c(=O)[nH]2)cc1` [Compound A11, 6,8-difluoro-2-[4-(1-hydroxy-1-methyl-ethyl)phenyl]-3H-quinazolin-4-one], for which the half-maximal inhibitory concentration (IC50) at His-tagged Parp-1 lay within 300 to 3000 nM.

As to `Cc1cc(F)cc2c(=O)[nH]c(-c3ccc(C4CCNCC4)cc3)nc12` [Compound A33, 6-fluoro-8-methyl-2-(4-piperidin-4-yl-phenyl)-3H-quinazolin-4-one hydrochloride], the IC50 in test [1] was < 300 nM; against His-tagged Parp-1 it was 300 to 3000 nM; in test [2] (setting [3]), < 300 nM.

`CC(C)(O)c1ccc(-c2nc3c(F)ccc(F)c3c(=O)[nH]2)cc1` [Compound A27, 5,8-difluoro-2-[4-(1-hydroxy-1-methyl-ethyl)-phenyl]-3H-quinazolin-4-one]: the IC50 in test [2] (setting [3]) is < 300 nM.

Consider `COc1cccc2c(=O)[nH]c(-c3ccc(C(C)(C)O)cc3)nc12` [Compound A2, 2-[4-(1-hydroxy-1-methyl-ethyl)-phenyl]-8-methoxy-3H-quinazolin-4-one], for which the IC50 in test [1] (read-out: IC50 TNKS1 ELISA) was < 300 nM; at His-tagged Parp-1 it was 300 to 3000 nM; in test [2] (setting [3]), < 300 nM.

For the compound `CC(C)(O)c1ccc(-c2nc3ccc(F)cc3c(=O)[nH]2)nc1` [Compound A13, 6-fluoro-2-[5-(1-hydroxy-1-methyl-ethyl)-2-pyridyl]-3H-quinazolin-4-one], in test [2] (setting [3]), the IC50 was 300 to 3000 nM.

Consider `CC(C)(O)c1ccc(-c2nc3ccc(Cl)cc3c(=O)[nH]2)cc1` [Compound A5, 6-chloro-2-[4-(1-hydroxy-1-methyl-ethyl)-phenyl]-3H-quinazolin-4-one], for which the IC50 in test [1] (read-out: IC50 TNKS1 ELISA) and in test [2] (setting [3]) was < 300 nM in each case.

In the case of `Cc1cc(F)cc2c(=O)[nH]c(-c3ccc(C(C)(C)O)cc3)nc12` [Compound A25, 6-fluoro-2-[4-(1-hydroxy-1-methyl-ethyl)-phenyl]-8-methyl-3H-quinazolin-4-one], the IC50 (in test [1] (read-out: IC50 TNKS1 ELISA); at His-tagged Parp-1; in test [2] (setting [3])) was < 300 nM each time.

As for `CC(C)(O)c1ccc(-c2nc3c(Cl)cccc3c(=O)[nH]2)cc1` [Compound A6, 8-chloro-2-[4-(1-hydroxy-1-methyl-ethyl)-phenyl]-3H-quinazolin-4-one], the IC50 in test [1] (read-out: IC50 TNKS1 ELISA) is < 300 nM; against His-tagged Parp-1 it was 300 to 3000 nM; in test [2] (setting [3]), < 300 nM.

Turning to `O=c1[nH]c(-c2ccc(C3CCNCC3)cc2)nc2c(F)cc(F)cc12` [Compound A34, 6,8-difluoro-2-(4-piperidin-4-yl-phenyl)-3H-quinazolin-4-one hydrochloride], the IC50 in test [2] was < 300 nM.

In the case of `CC(C)(O)c1ccc(-c2nc3cccc(Cl)c3c(=O)[nH]2)cc1` [Compound A23, 5-chloro-2-[4-(1-hydroxy-1-methyl-ethyl)-phenyl]-3H-quinazolin-4-one], the IC50 in test [1] (read-out: IC50 TNKS1 ELISA) is < 300 nM; in test [2] (setting [3]), 300 to 3000 nM.

The term IC50 denotes the point on the concentration scale where inhibition reaches its midpoint.
